Ends that are not written are not given here.
How the values were obtained:
[1] = Peptide solubility test in saline (visual: cloudy = insoluble, clear = soluble); conditions: visual assessment
Method: MBP, MOG and PLP peptides were also tested.
Peptides were added to saline at different concentrations and it was visually assessed whether the resulting sample was cloudy (peptide insoluble) or clear (peptide soluble).

TCC14 = assay: Antigen specificity of TCC14 (co-cultivation with monocytes and peptide-coupled RBCs, fluorospot); assay type: cell-based, human; conditions: irrelevant peptide; 48 hours; Figure 15
Method: In order to evaluate whether the IL-10 and IFN-γ secretion upon co-culturing TCC14 with active monocytes and peptide-coupled RBCs is antigen-specific, biotinylated SIN3A* peptide ([…]) (SEQ ID NO: 38) was coupled to RBCs and co-cultured with TCC14 and active monocytes. […] Therefore, it was tested if the SIN3A*-coupled RBCs have any effect on TCC14. Soluble SIN3A* peptide (QPVEFNHAIHYVN) (SEQ ID NO: 39) was used for stimulation.
Monocytes were magnetically isolated from PBMCs of a DR15 donor and seeded at 50×10^3 in each well. 25 ×10^3 of the TCC14 was seeded in each well (final volume 200 µl). Coupling to RBCs was performed with 1.58 mg/ml (0.132 mg/ml × 12) of the respective peptide. 200×10^3 RBCs were added to each well.
IFN-α was directly added into the wells at the time of seeding the cells at 10000 U/ml. In the samples with soluble peptides, 10 µM of the peptides was added to the wells. Plates were incubated for 48 hours and stained for IFN-γ, IL-10 and IL-17 according to the manufacturer's instructions (see fluorospot assay supra).

[2] = tested on: RASGRP2 78-87-specific T cell clones (TCCs); assay: T cell reactivity in RASGRP2 (78-87) specific T cell clones (3H-thymidine assay); assay type: cell-based, human; conditions: 72 hours; four DRB1*15:01-restricted clones; presented by BLS DR2b cells; Figure 6
Method: Four RASGRP2 78-87-specific T cell clones (TCCs) (cf. Wang et al., 2020, Cell, 183(5):1264-1281) were tested by 3H-thymidine incorporation (72 hours) for their responses against the biotinylated RASGRP2 (74-91) (SEQ ID NO: 2) peptide "bioRASGRP2 74-91" and a positive control, i.e. stimulation with anti-CD2/3/28-coupled beads. Each of the clones is DRB1*15:01-restricted.
Proliferation was measured 72 h after stimulation by 3H-thymidine (Hartmann Analytic, Braunschweig, Germany) incorporation in a scintillation counter (Wallac 1450, PerkinElmer, Rodgau-Jürgesheim, Germany). Depicted is the fold change over unstimulated control. Each dot represents the mean of 3 repeat wells for each clone. Peptides were presented in the assay by BLS cells transfected with DRA*01:01 and DRB1*15:01 (the heterodimer is referred to as BLS DR2b).

Row | Substance | solubility in saline ([1]; at a concentration of 10 mg/ml) | solubility in saline ([1]; concentration not given) | further results
1 | LSVGEEDEVS [TSTA3-3 (242-251), LSVGEEDEVS] | soluble in saline | – | –
2 | QPVEFNHAIHYVN [SIN3A*, irrelevant peptide, a tumor-specific antigen not recognized by TCC14] | – | – | effect on the T cell clone (IL-10 and IFN-γ secretion) (TCC14): neither stimulatory nor inhibitory
3 | LVRYWISAFPAEFDL [RASGRP2 78-92, LVRYWISAFPAEFDL] | – | insoluble in saline | –
4 | LVRYWISAFPAEFDLNPE [RASGRP2 78-95, LVRYWISAFPAEFDLNPE] | – | insoluble in saline | –
5 | biotinylated RASGRP2 (74-91): RASGRP2 (74-91) (SEQ ID NO: 2) coupled to a Biotin-PEG linker (Maleimide-PEG2-Biotin) (KTCHLVRYWISAFPAEFD; also: coupled to Maleimide-PEG2-Biotin linker, site not given here; listed as Homo sapiens) | – | – | proliferative response (3H-thymidine incorporation) [2]: positive proliferative response
6 | KTCHLVRYWISAFPAEFD [RASGRP2 (74-91), KTCHLVRYWISAFPAEFD] | soluble in saline | – | –
7 | FRFTPFKQAVKETCA [TSTA3-4 (296-310), FRFTPFKQAVKETCA] | soluble in saline | – | –
8 | LVRYWISAFP [RASGRP2 78-87, LVRYWISAFP] | – | not soluble in saline | –
9 | SLQVKTCHLVRYWISAFPAEFDLNPE [RASGRP2 70-95] | – | insoluble in saline | –
10 | TAQTRALFEKVQPTH [TSTA3-1 (51-65), TAQTRALFEKVQPTH] | soluble in saline | – | –
11 | PHNSNFGYSYAKRMI [TSTA3-2 (136-150), PHNSNFGYSYAKRMI] | soluble in saline | – | –
12 | SNSLQVKTCHLVRYWISAFPAEFDLNPELA [RASGRP2 68-97] | – | insoluble in saline | –
